A short description of data set [1]: Resistance to degradation by lysosomal enzymes (LC/ESI-MS). Type of data set: in vitro ADME. The following applies: 37°C; for resistance to lysosomal enzyme degradation (in words): sonicated cells, pH 5 Tris buffer, different times, LC/ESI-MS (Figure 2B); for Peptide Degradation: sonicated cultured cells in pH 5 Tris buffer (lysosomal enzymes), incubation 1–14 h, starting peptide concentration 10^−4 M taken as 100%, LC/ESI-MS, mean ± SEM. On the procedure: The cultured cells were resuspended using pH 5 Tris buffer, and then sonicated. Protein concentration was measured using the RC DC protein assay kit (Bio-Rad, CA, USA) according to the manufacturer’s instructions. The peptides were incubated with this protein solution for 1–14 h, and its stability was evaluated by reversed-phase liquid chromatography coupled with an electrospray ionization mass spectrometer (LC/ESI-MS).
Figure 2 Lysosomal enzymes participate in the cytotoxic reduction activities of the Gm analogues. (A, C and D) Cell viability was assessed by the MTT reduction test. (A) Cells were incubated with cytoskeletal inhibitor (cytochalasin D), and lysosomal inhibitor (chloroquine) for 1 h before to stimulation by Gm, and its analogues for 24 h. Chloroquine potentiated the cytotoxicity of peptides. (B) Since chloroquine was able to potentiate the cytotoxicity of the peptides, resistance to degradation of lysosomal enzymes was evaluated by LC/ESI-MS. Peptides were incubated at 37°C for different times. (C) Cells were incubated with the IC50 concentration for each peptide. Cytotoxic activities after 24 and 72 h of the peptide incubation were compared.

Data set [2] relates to B16 cells. The data set is described as follows: Peptide internalized into cells, biotinylated peptides, flow cytometry. Type of data set: cell-based, mouse. To be noted: for internal presence of peptide after 24 h: 2 µM biotinylated peptides; for Max. Internal Fluorescence: biotinylated peptides used, 2 µM, B16 cells, streptavidin-Alexa 647 (FL4) after fixation and saponin permeabilization, maximum over time course, mean ± SEM, three independent experiments. The procedure:
Cells were treated with the 2 µM biotinylated peptide. Then, the melanoma cells (5×10^5 for flow cytometry or 5×10^3 cell seeded for confocal microscopy) were labeled with streptavidin-Alexa 488 (Invitrogen, USA) for 30 min at 4°C and washed with PBS. The cells were fixed with a solution of 2% paraformaldehyde for 30 min, washed with 0.1 M glycin, and permeabilized with 0.01% saponin. Then, the cells were labeled with streptavidin-Alexa 647 (Invitrogen, USA). For flow cytometry, the cells were extracted using PBS with 5 mM EDTA previously to fixation. The quantification of label of external biotynilated peptide, and intracellular peptide were performed by flow cytometry or confocal microscopy. For flow cytometry the cells were excited using argon laser (488 nm), and diode laser (633 nm). The emission was collected in FL-1 and FL-4 channel. A total of 10,000 events were collected per sample. For confocal microscopy, nuclei were stained with DAPI. Confocal microscopy analyses were performed with a confocal laser scanning microscope equipped with a Plan-Apochromat ×63 objective under oil immersion (Zeiss, LSM780). The pinhole device was adjusted to capture fluorescence of one airy unit. The images correspond to single focal plane. Streptavidin-Alexa Fluor 488 were excited using an argon laser (λEx. = 488 nm, λEm. = 505–550 nm), streptavidin-Alexa Fluor 647 was excited using a HeNe laser (λEx. = 633 nm, λEm. = 640–710 nm) and DAPI was excited using a multiphoton laser (Coherent) (λEx. = 750 nm, λEm. = 380–460 nm). Unviable cells were excluded with propidium iodide (PI) label.
We quantified the Gm and analogues binding to the cellular membrane, and their internalization using their biotinylated counterpart. […] Unviable cells were excluded by PI label (Figure S2). External peptides labeled with streptavidin Alexa Fluor 488 were identified for the quantification of the green fluorescence (FL1 channel), and internal peptides labeled with streptavidin Alexa Fluor 647 were identified for the quantification of the deep red fluorescence (FL4 channel), after permeabilization of cellular membrane, by Flow cytometry. […] On the other hand, the peptides that present lower cytotoxicity were not retained after 24 h (Figure 3A-F). However, a direct relation between binding, peptide entrance, and cytotoxicity effect was not full observed, the entrance into cells seem to be important to the action of several AMPs. To verify the participation of the entry of peptide with cytotoxicity cholesterol level cholesterol level was reduced incubating the cells with MβCD for 1 h, which increase the membrane fluidity. As expected, the treatment of the cells with MβCD increases the entry of peptide (Figure 3G) and increases the cytotoxicity of the peptides, except the analogue [Thr^2,6,11,15]-Gm (Figure 3H).

The test system of data set [3] is B16 F10 mouse melanoma cell line. The data set is classed as cell-based. To be noted: 24 h. On the procedure: B16 F10 mouse melanoma cell line was cultured in RPMI medium supplemented with 10% fetal bovine serum (FBS; Gibco, USA), 10 U/ml penicillin and 10 µg/ml streptomycin. Cells were cultured in a humidified incubator containing 2.5% CO2 at 37°C.
B16 cells were incubated in 96-well microtiter plates in RPMI medium supplemented with 10% FBS until reach the semi-confluence and then treated with different concentrations of Gm and its analogues for 24 h. To investigate the mechanisms of Gm-induced cell death, B-16 cells were also pre-incubated with 40 µM cytochalasin D (Tocris, USA); 20 µM necrostatin-1 (Tocris, USA), 10 µM Z-VAD (Tocris, USA), 5 mM MβCD (Tocris, USA), and 100 µM chloroquine (Tocris, USA) for 1 h. Cell viability was determined using the standard reduction of the tetrazolium salt 3-(4,5-dimethylthiazol-2-yl)-2,5-diphenyltetrazolium bromide (MTT). The results were expressed relative to control cell viability (100%).

Molecules are shown by their SMILES. Where a SMILES comes first, the peptide text is derived from it. [ ]: non-standard residue; d: D form. d(pGlu) = O=C1CC[C@H](C(=O)O)N1; pGlu = O=C1CC[C@@H](C(=O)O)N1 Where only a bound is given, the exact number is not on record here.

With `CC(C)C[C@H](NC(=O)[C@H](CCCNC(=N)N)NC(=O)[C@H](CCCNC(=N)N)NC(=O)[C@@H](NC(=O)[C@@H]1CCC(=O)N1)[C@@H](C)O)C(=O)N[C@H](C(=O)N[C@@H](Cc1ccc(O)cc1)C(=O)N[C@@H](CCCCN)C(=O)N1CCC[C@@H]1C(=O)N[C@@H](CCCNC(=N)N)C(=O)N[C@H](C(=O)N[C@H](C(=O)N[C@H](C(=O)N[C@@H](Cc1ccc(O)cc1)C(=O)N[C@H](C(=O)N[C@@H](CCCNC(=N)N)C(=O)NCC(=O)N[C@@H](CCCNC(=N)N)C(N)=O)[C@@H](C)O)[C@@H](C)O)C(C)C)[C@@H](C)O)[C@@H](C)O` [[Thr^2,6,11,15, D-Pro^9]-Gm] ([pGlu]TRRLTYK[dP]RTVTYTRGR-NH2), in data set [1], the “resistance to lysosomal enzyme degradation (in words)” value (“resistance” for short) is “stable to enzymatic degradation” and the “Peptide Degradation” value worked out at 16±1%. Further, in data set [2], the “internal presence of peptide after 24 h” value is recorded as “internal presence” and the “Max. Internal Fluorescence” value stood at 1165±27 AU. The compound further yielded an IC50 in data set [3] of 90 µM.
On to `CC(C)C[C@H](NC(=O)[C@H](CCCNC(=N)N)NC(=O)[C@H](CCCNC(=N)N)NC(=O)[C@@H](NC(=O)[C@@H]1CCC(=O)N1)[C@@H](C)O)C(=O)N[C@H](C(=O)N[C@@H](Cc1ccc(O)cc1)C(=O)N[C@@H](CCCCN)C(=O)N[C@@H](CCC(N)=O)C(=O)N[C@@H](CCCNC(=N)N)C(=O)N[C@H](C(=O)N[C@H](C(=O)N[C@H](C(=O)N[C@@H](Cc1ccc(O)cc1)C(=O)N[C@H](C(=O)N[C@@H](CCCNC(=N)N)C(=O)NCC(=O)N[C@@H](CCCNC(=N)N)C(N)=O)[C@@H](C)O)[C@@H](C)O)C(C)C)[C@@H](C)O)[C@@H](C)O` [[Thr^2,6,11,15]-Gm] ([pGlu]TRRLTYKQRTVTYTRGR-NH2), for which, in data set [1], the “resistance” value was “most sensitive peptides to degradation” and the “Peptide Degradation” value is given as 43±4%. For the same compound, the “Max. Internal Fluorescence” value in data set [2] is listed as 753±175 AU. Further, the IC50 in data set [3] is greater than 200 µM.
Consider `CC(C)C[C@@H](NC(=O)[C@@H](CCCNC(=N)N)NC(=O)[C@@H](CCCNC(=N)N)NC(=O)[C@H](NC(=O)[C@H]1CCC(=O)N1)[C@H](C)O)C(=O)N[C@@H](C(=O)N[C@H](Cc1ccc(O)cc1)C(=O)N[C@H](CCCCN)C(=O)N[C@H](CCC(N)=O)C(=O)N[C@H](CCCNC(=N)N)C(=O)N[C@@H](C(=O)N[C@@H](C(=O)N[C@@H](C(=O)N[C@H](Cc1ccc(O)cc1)C(=O)N[C@@H](C(=O)N[C@H](CCCNC(=N)N)C(=O)NCC(=O)N[C@H](CCCNC(=N)N)C(N)=O)[C@H](C)O)[C@H](C)O)C(C)C)[C@H](C)O)[C@H](C)O` [[D-Thr^2,6,11,15]-D-Gm] ([d(pGlu)][dT][dR][dR][dL][dT][dY][dK][dQ][dR][dT][dV][dT][dY][dT][dR]G[dR]-NH2), for which, in data set [1], the “resistance” value was “little affected by lysosomal enzymes” and the “Peptide Degradation” value amounted to 12±2%. Moreover, in data set [2], the “internal presence of peptide after 24 h” value is given as “internal presence” and the “Max. Internal Fluorescence” value is given as 602±12 AU. The compound further returned an IC50 in data set [3] of 25 µM. Besides, the “fold less potent than Gm” value in data set [3] (B16 cells, MTT, ratio of potencies) is 3.5 fold.
With `CC(C)C[C@H](NC(=O)[C@H](CCCNC(=N)N)NC(=O)[C@H](CCCNC(=N)N)NC(=O)[C@H](CO)NC(=O)[C@@H]1CCC(=O)N1)C(=O)N[C@@H](CO)C(=O)N[C@@H](Cc1ccc(O)cc1)C(=O)N[C@@H](CCCCN)C(=O)N[C@@H](CCC(N)=O)C(=O)N[C@@H](CCCNC(=N)N)C(=O)N[C@@H](CO)C(=O)N[C@H](C(=O)N[C@H](C(=O)N[C@@H](Cc1ccc(O)cc1)C(=O)N[C@@H](CO)C(=O)N[C@@H](CCCNC(=N)N)C(=O)NCC(=O)N[C@@H](CCCNC(=N)N)C(N)=O)[C@@H](C)O)C(C)C` [[Ser^2,6,11,15]-Gm] ([pGlu]SRRLSYKQRSVTYSRGR-NH2), in data set [1], the “resistance” value is on record as “most sensitive peptides to degradation” and the “Peptide Degradation” value was 47±5%. In addition, the “Max. Internal Fluorescence” value in data set [2] was 305±65 AU. This compound also yielded an IC50 in data set [3] greater than 200 µM.
Regarding `CC(C)C[C@@H](NC(=O)[C@@H](CCCNC(=N)N)NC(=O)[C@@H](CCCNC(=N)N)NC(=O)[C@H](NC(=O)[C@H]1CCC(=O)N1)[C@H](C)O)C(=O)N[C@@H](C(=O)N[C@H](Cc1ccc(O)cc1)C(=O)N[C@H](CCCCN)C(=O)N1CCC[C@H]1C(=O)N[C@H](CCCNC(=N)N)C(=O)N[C@@H](C(=O)N[C@@H](C(=O)N[C@@H](C(=O)N[C@H](Cc1ccc(O)cc1)C(=O)N[C@@H](C(=O)N[C@H](CCCNC(=N)N)C(=O)NCC(=O)N[C@H](CCCNC(=N)N)C(N)=O)[C@H](C)O)[C@H](C)O)C(C)C)[C@H](C)O)[C@H](C)O` [[D-Thr^2,6,11,15, Pro^9]-D-Gm] ([d(pGlu)][dT][dR][dR][dL][dT][dY][dK]P[dR][dT][dV][dT][dY][dT][dR]G[dR]-NH2), in data set [1], the “resistance” value was “little affected by lysosomal enzymes” and the “Peptide Degradation” value amounted to 15±2%. In data set [2], the “internal presence of peptide after 24 h” value is given as “internal presence” and the “Max. Internal Fluorescence” value turned out to be 2751±190 AU. Also, the IC50 in data set [3] amounted to 75 µM.

The values above are taken from paper PMC3843672, “Resistance to Degradation and Cellular Distribution are Important Features for the Antitumor Activity of Gomesin” (PLoS ONE, 2013).
